Experimental data from patent US20150258118A1, “CO-MICRONISATION PRODUCT COMPRISING A SELECTIVE PROGESTERONE-RECEPTOR MODULATOR” (LABORATOIRE HRA-PHARMA, priority 2012, published 2015).
Converted amounts (≈) assume the structure as drawn.

Tests used:
[1] = UPA solubility as a function of pH; assay type: physicochemical
[2] = chronic administration, 5 mg or 10 mg per day; cited from earlier work
[3] = single dose of 30 mg, within 120 hours following unprotected or poorly protected intercourse; cited from earlier work
[4] = In vitro dissolution of UPA comicronizates (gelatin capsules, paddle device, Eur. Pharmacopoeia §2.9.3); assay type: physicochemical; conditions: 30 mg UPA capsule, 900 ml gastric pH buffer, 0.1% SDS, 37°C, 50 rpm, mean of 3
Experimental: The co-micronization product has improved active ingredient in vitro dissolution properties. In certain embodiments, the co-micronization product according to the invention is characterized in that at least 55% of the active ingredient that it contains is released within 45 minutes when said co-micronization product is subjected to an in vitro dissolution test, preferably according to the European Pharmacopoeia §2.9.3. The in vitro dissolution test can be carried out using any commercially available device. Example 1 hereinafter presents implementing conditions for determining the in vitro dissolution rate of a comicronizate according to the invention. Briefly, an amount of comicronizate representing 30 mg of active ingredient is placed in a gelatin capsule. This capsule is then placed in 900 ml of a medium buffered at gastric pH, comprising 0.1% of SDS, at 37±0.5° C., and subjected to stirring at 50 revolutions per minute (rpm) (speed of rotation of the paddles of the dissolution device). The dissolution of the active ingredient in the medium can be monitored by spectrophotometry, for example at the maximum wavelength of absorbance. For the purposes of the invention, a gastric pH is typically a pH of 1 to 3.
For each comicronizate obtained, gelatin capsules containing an amount of comicronizate corresponding to 30 mg of UPA per capsule were prepared. The studies of the in vitro dissolution of UPA as comicronizate were carried out using these capsules according to the method described in the European Pharmacopoeia in §2.9.3, using a paddle dissolution device.
For each comicronizate, a capsule containing said comicronizate was placed in a bowl of the dissolution device containing 900 ml of a dissolution medium. The dissolution medium is an aqueous solution buffered at gastric pH and comprising 0.1% of SDS. The conditions for carrying out the in vitro dissolutions are the following: • Paddle rotation speed: 50 revolutions per minute (rpm) • Temperature: 37° C.±0.5° C.
The dissolution of the UPA was monitored by spectrophotometry.
By way of control experiment, a gelatin capsule containing 30 mg of ulipristal acetate micronized alone (i.e. UPA micronized in the absence of any co-micronization excipient) was used. For each comicronizate, the dissolution experiment was reproduced 3 times.
These various active ingredient matrices were subjected to an in vitro dissolution test as described above in the “Materials and Methods” section.

CC(=O)O[C@]1(C(C)=O)CCC2C3CCC4=CC(=O)CCC4=C3[C@@H](c3ccc(N(C)C)cc3)C[C@@]21C (stereo partly drawn) [UPA, 17α-acetoxy-11β-(4-N,N-dimethylaminophenyl)-19-norpregna-4,9-diene-3,20-dione]
solubility ([1]; pH 1.2, simulated gastric fluid): 22700 µg/mL (≈ 47700 µM)
solubility ([1]; pH 4.5, aqueous buffer): 39 µg/mL (≈ 82 µM)
solubility ([1]; pH 6.8, aqueous buffer): 5 µg/mL (≈ 10.5 µM)
Symptoms associated with uterine fibromas [2]: significantly reduce the symptoms associated with uterine fibromas
Prevention of unwanted pregnancy [3]: makes it possible to prevent an unwanted pregnancy
Percentage of UPA released relative to the initial amount of UPA per gel capsule ([4]; time 0 min): 0.00%
Percentage of UPA released relative to the initial amount of UPA per gel capsule ([4]; time 1 min): 0.00%
Percentage of UPA released relative to the initial amount of UPA per gel capsule ([4]; time 5 min): 5.50%
Percentage of UPA released relative to the initial amount of UPA per gel capsule ([4]; time 7.5 min): 15.00%
Percentage of UPA released relative to the initial amount of UPA per gel capsule ([4]; time 10 min): 22.30%
Percentage of UPA released relative to the initial amount of UPA per gel capsule ([4]; time 15 min): 30.00%
Percentage of UPA released relative to the initial amount of UPA per gel capsule ([4]; time 20 min): 34.30%
Percentage of UPA released relative to the initial amount of UPA per gel capsule ([4]; time 30 min, listed as Micronized UPA): 39.50%
Percentage of UPA released relative to the initial amount of UPA per gel capsule ([4]; time 30 min, listed as micronized ulipristal acetate): approximately 39%
Percentage of UPA released relative to the initial amount of UPA per gel capsule ([4]; time 45 min): 47.50%
Percentage of UPA released relative to the initial amount of UPA per gel capsule ([4]; time 60 min): 53.80%
